Results reported in PubChem BioAssay AID276 (DTP/NCI, 2004).
Several values for one entry are separate records, joined by “and”; a condition that tells them apart may be missing. Equal entries are not always repeated. Inconclusive results and toxic doses are left out.

System: B6C3F1 mice, Lewis lung carcinoma iv, survival T/C
Experiment: NCI In Vivo Anticancer Drug Screen. Data for tumor model Lewis Lung Carcinoma (intravenous) in B6C3F1 mice
Details: endpoint: median survival time, schedule: Q01DX009 (ip), higher = longer survival
Experimental: The antitumor activity of compounds was measured in mice bearing transplantable tumors. Survival or tumor size were measured and the results are expressed as the measurement made in the treated group (T) divided by the measurement made in the vehicle treated control group (C). The tumor model used in this assay is Lewis Lung Carcinoma (intravenous) in B6C3F1 mice

[1] = dose: 12.5 mg/kg/injection, vehicle: saline with Tween-80
[2] = dose: 25.0 mg/kg/injection, vehicle: saline with Tween-80
[3] = dose: 50.0 mg/kg/injection, vehicle: saline with Tween-80
[4] = dose: 100.0 mg/kg/injection, vehicle: saline with Tween-80
[5] = dose: 12.5 mg/kg/injection, vehicle: Klucel (hydroxypropylcellulose) (HPC)
[6] = dose: 25.0 mg/kg/injection, vehicle: Klucel (hydroxypropylcellulose) (HPC)
[7] = dose: 50.0 mg/kg/injection, vehicle: Klucel (hydroxypropylcellulose) (HPC)
[8] = dose: 12.5 mg/kg/injection, vehicle: water
[9] = dose: 25.0 mg/kg/injection, vehicle: water
[10] = dose: 25.0 mg/kg/injection, vehicle: saline
[11] = dose: 50.0 mg/kg/injection, vehicle: saline
[12] = dose: 100.0 mg/kg/injection, vehicle: saline
[13] = dose: 200.0 mg/kg/injection, vehicle: saline
[14] = dose: 100.0 mg/kg/injection, vehicle: Klucel (hydroxypropylcellulose) (HPC)
[15] = dose: 200.0 mg/kg/injection, vehicle: Klucel (hydroxypropylcellulose) (HPC)
[16] = dose: 12.5 mg/kg/injection, vehicle: saline

CCc1ccc(C2=C(O)C(=O)C(c3ccc(CC)cc3)=C(O)C2=O)cc1
T/C (dose: 3.12 mg/kg/injection, vehicle: saline with Tween-80): 111 % of control | T/C (dose: 6.0 mg/kg/injection, vehicle: saline with Tween-80): 105 % of control | T/C (dose: 6.25 mg/kg/injection, vehicle: saline with Tween-80): 111 % of control | T/C (dose: 12.0 mg/kg/injection, vehicle: saline with Tween-80): 103 % of control | T/C [1]: 117 % of control | T/C [2]: 114 % of control and 88 % of control | T/C [3]: 103 % of control | T/C [4]: 101 % of control

CC1(C)CC(=O)C(CSC(=O)c2ccccc2)C(=O)C1
T/C (dose: 3.13 mg/kg/injection, vehicle: Klucel (hydroxypropylcellulose) (HPC)): 101 % of control | T/C (dose: 6.25 mg/kg/injection, vehicle: Klucel (hydroxypropylcellulose) (HPC)): 95 % of control | T/C [5]: 95 % of control | T/C [6]: 103 % of control | T/C [7]: 103 % of control

NC(=O)CCC(N)C(=O)O (configuration not stated)
T/C (dose: 25.0 mg/kg/injection, vehicle: suspension in saline): 109 % of control | T/C (dose: 50.0 mg/kg/injection, vehicle: suspension in saline): 111 % of control | T/C (dose: 100.0 mg/kg/injection, vehicle: suspension in saline): 107 % of control | T/C (dose: 200.0 mg/kg/injection, vehicle: suspension in saline): 102 % of control | T/C (dose: 400.0 mg/kg/injection, vehicle: suspension in saline): 94 % of control

CCSC(=O)N1c2ccc(OC)cc2C=CC1C#N (configuration not stated)
T/C [1]: 98 % of control | T/C [2]: 113 % of control | T/C [3]: 99 % of control | T/C [4]: 104 % of control | T/C (dose: 200.0 mg/kg/injection, vehicle: saline with Tween-80): 110 % of control | T/C (dose: 400.0 mg/kg/injection, vehicle: saline with Tween-80): 108 % of control

C[C@]12C=CC(=O)C=C1CC[C@@H]1[C@@H]2C(=O)C[C@@]2(C)[C@H]1CC[C@]2(O)C(=O)CO
T/C [8]: 100 % of control | T/C [9]: 100 % of control | T/C (dose: 50.0 mg/kg/injection, vehicle: water): 96 % of control | T/C (dose: 100.0 mg/kg/injection, vehicle: water): 98 % of control | T/C (dose: 200.0 mg/kg/injection, vehicle: water): 94 % of control

O=C1c2ccccc2C(=O)c2c(NCCNCCO)ccc(O)c21
T/C (dose: 2.5 mg/kg/injection, vehicle: saline): 104 % of control | T/C (dose: 5.0 mg/kg/injection, vehicle: saline): 116 % of control | T/C (dose: 10.0 mg/kg/injection, vehicle: saline): 96 % of control | T/C (dose: 20.0 mg/kg/injection, vehicle: saline): 104 % of control | T/C (dose: 40.0 mg/kg/injection, vehicle: saline): 117 % of control | T/C (dose: 80.0 mg/kg/injection, vehicle: saline): 117 % of control

CC(=O)CC(=O)CCC(=O)O
T/C [10]: 98 % of control | T/C [11]: 103 % of control | T/C [12]: 102 % of control | T/C [13]: 105 % of control

CC1(C)CC23C4COC(=O)C2CCC1C3CC4=O (configuration not stated)
T/C (dose: 3.0 mg/kg/injection, vehicle: DMSO): 103 % of control | T/C (dose: 6.0 mg/kg/injection, vehicle: DMSO): 97 % of control and 99 % of control | T/C (dose: 12.0 mg/kg/injection, vehicle: DMSO): 100 % of control and 102 % of control | T/C (dose: 24.0 mg/kg/injection, vehicle: DMSO): 95 % of control and 124 % of control | T/C (dose: 48.0 mg/kg/injection, vehicle: DMSO): 103 % of control and 106 % of control | T/C (dose: 96.0 mg/kg/injection, vehicle: DMSO): 102 % of control | T/C (dose: 192.0 mg/kg/injection, vehicle: DMSO): 98 % of control

C[C@]12CCC(=O)C=C1CC[C@@H]1[C@@H]2[C@@H](O)C[C@@]2(C)[C@H]1CC[C@]2(O)C(=O)CO
T/C [5]: 110 % of control | T/C [6]: 107 % of control | T/C [7]: 97 % of control | T/C [14]: 106 % of control | T/C [15]: 100 % of control

CC(C)(C)c1ccc(CN2CCN(C(c3ccccc3)c3ccc(Cl)cc3)CC2)cc1 (configuration not stated)
T/C (dose: 8.0 mg/kg/injection, vehicle: Klucel (hydroxypropylcellulose) (HPC)): 117 % of control | T/C (dose: 16.0 mg/kg/injection, vehicle: Klucel (hydroxypropylcellulose) (HPC)): 115 % of control | T/C (dose: 32.0 mg/kg/injection, vehicle: Klucel (hydroxypropylcellulose) (HPC)): 105 % of control | T/C (dose: 64.0 mg/kg/injection, vehicle: Klucel (hydroxypropylcellulose) (HPC)): 103 % of control

c1cc2n(n1)CCN2
T/C [10]: 107 % of control | T/C [11]: 97 % of control | T/C [12]: 97 % of control

C/C(=N\NC(=S)N1CCN(c2ccccn2)CC1)c1ccccn1
T/C (dose: 6.25 mg/kg/injection, vehicle: water): 109 % of control | T/C [8]: 104 % of control | T/C [9]: 113 % of control

[Cl][Pt+2][Cl].[NH-]CC1(C[NH-])CCC1
T/C (dose: 1.56 mg/kg/injection, vehicle: suspension in saline): 96 % of control | T/C (dose: 3.12 mg/kg/injection, vehicle: suspension in saline): 105 % of control

CNNCc1ccc(C(=O)NC(C)C)cc1
T/C [14]: 153 % of control | T/C [15]: 151 % of control | T/C (dose: 400.0 mg/kg/injection, vehicle: Klucel (hydroxypropylcellulose) (HPC)): 200 % of control

CC(=O)O[C@@]1(C)[C@@H](C)C(=O)O[C@@H]2CCN3CC=C(COC(=O)[C@]1(C)O)[C@H]23
T/C [2]: 110 % of control | T/C [3]: 113 % of control | T/C [4]: 285 % of control

OCCN1CCN(CC/C=C2/c3ccccc3Sc3ccc(C(F)(F)F)cc32)CC1
T/C (dose: 0.19 mg/kg/injection, vehicle: saline): 114 % of control | T/C (dose: 0.39 mg/kg/injection, vehicle: saline): 101 % of control | T/C (dose: 0.78 mg/kg/injection, vehicle: saline): 102 % of control | T/C (dose: 1.56 mg/kg/injection, vehicle: saline): 98 % of control | T/C (dose: 3.12 mg/kg/injection, vehicle: saline): 98 % of control | T/C (dose: 6.25 mg/kg/injection, vehicle: saline): 108 % of control

CC(C)C(N)C(=O)Nc1nncs1 (configuration not stated)
T/C [16]: 108 % of control | T/C [10]: 104 % of control | T/C [11]: 114 % of control and 121 % of control | T/C (dose: 50.62 mg/kg/injection, vehicle: saline): 103 % of control | T/C (dose: 50.62 mg/kg/injection, vehicle: suspension in saline): 110 % of control | T/C (dose: 67.5 mg/kg/injection, vehicle: saline): 103 % of control | T/C (dose: 67.5 mg/kg/injection, vehicle: suspension in saline): 124 % of control | T/C (dose: 90.0 mg/kg/injection, vehicle: saline): 100 % of control | T/C [12]: 165 % of control and 245 % of control | T/C (dose: 120.0 mg/kg/injection, vehicle: saline): 112 % of control | T/C (dose: 120.0 mg/kg/injection, vehicle: suspension in saline): 157 % of control | T/C (dose: 160.0 mg/kg/injection, vehicle: saline): 117 % of control

N=C(N)Sc1cc(O)ccc1O
T/C [16]: 109 % of control | T/C [10]: 95 % of control | T/C [11]: 104 % of control | T/C [12]: 99 % of control | T/C [13]: 99 % of control
